Experimental data from US6433021B1, “Indane compounds and their pharmaceutical use” (Venantius Limited, priority 1999, dated 2002).

Assays:
mast cells = assay: Histamine release assay (mast cell stabilisation, compound 48/80-induced histamine release); format: cell-based, Female Wistar rats; conditions: rat peritoneal mast cells, 2×10^−5 M test compound, stimulated with Compound 48/80, n=5, read-out: % inhibition of histamine Release (±S.E.M.)
Method: The compounds were assessed for their ability to stabilise mast cell membranes in vitro. Mast cells treated with the compounds and untreated mast cells were stimulated to release histamine. A reduction in histamine release by the treated cells compared to the untreated cells indicates stabilisation of the membranes.
The buffered salt solution (BSS) was prepared in advance (NaCl 137 mM; KCl 2.7 mM; MgCl2 1.0 mM; CaCl2 0.5 mM; NaH2PO4 0.4 mM; Glucose 5.6 mM; HEPES 10 mM). This was dispensed into test tubes and heated to 37° C. each test tube contained 4.5 ml BSS. The solvent blank was supplemented with 0.5% (v/v) dimethyl sulphoxide (DMSO) or 0.5% (v/v) distilled water (dH2O). […]
To 2 ml of supernatent from each tube was added 0.4 ml of 1 M NaOH and 0.1 ml oPT (1% (w/v) in methanol). […] The presence of the fluorescent product of the reaction was measured using a Shimadzu RF-1501 spectrofluorophotometer set at λex=360 nm, λem=450 nm.
Each drug was tested on at least five animals (n=5). The results were expressed as a percentage of maximum inhibition of compound 48/80 induced-histamine release in the solvent blank sample. […] The basal histamine release in untreated cells was noted, expressed as a percentage of the total histamine content of the cells in suspension.

[1] = system: arachidonic acid-induced ear oedema; assay: Mouse ear oedema model (arachidonic acid-induced acute inflammation); format: in vivo, Laca mice; conditions: 300 μg per ear topical in acetone, 30 min before arachidonic acid, 1 hour after arachidonic acid
Method: Mouse Ear Oedema Model The mouse ear oedema model was performed using Laca mice (25-35 g), of either sex. The animals were sedated with fentanyl/fluanisone (Hypnorn, Janssen). One ear was treated by the topical application of one of a range of test compounds or dexamethasone (all at 300 μg per ear in acetone). After 30 minutes, oedema was induced by the topical application of arachidonic acid (10 μl at 0.4 g/ml in acetone). The width of each ear was measured, both before and 60 minutes after the induction of oedema, using a micrometer screw gauge. Ear oedema was calculated by comparing the ear width before and after induction of oedema and expressed as percentage normal. Values are expressed as the percentage increase in ear thickness 1 hour after administration of archidonic acid and solvent controls (n=6 except Compound IV, n=4). Acute Inflammation—Mouse Ear

[2] = second set, solvent control 79.6
[3] = first set, solvent control 69.0

Compound	inhibition at 20 µM (mast cells) [%]	Mean % (percentage increase in ear thickness) [1, 2] [%]	Mean % (percentage increase in ear thickness) [1, 3] [%]
OC(CC1(C2=Cc3ccccc3C2)Cc2ccccc2C1O)c1ccccc1 (stereo not shown) [Compound II, 1-phenyl-2-((2′-iindenyl)-indan-2-ol)ethan-1-ol]	53.5 ± 2.53	17.7	
C[C@@H]1C[C@H]2[C@@H]3CCC4=CC(=O)C=C[C@]4(C)[C@@]3(F)[C@@H](O)C[C@]2(C)[C@@]1(O)C(=O)CO [Dexamethasone, reference compound]		54.0	41.6
O=C(CC1(C2=Cc3ccccc3C2)Cc2ccccc2C1=O)c1ccccc1 (stereo not shown) [Compound I, 1-phenyl-2-((2′-iidenyl)-indan-2-onyl)ethan-1-one]			49.3
O=C1c2ccccc2CC1(CC(O)c1ccccc1)C1=Cc2ccccc2C1 (stereo not shown) [Compound IV, 1-phenyl-2-((2′-iidenyl)-indan-2-one)ethan-1-ol]		13.1	
O=C(CC1(C2=Cc3ccccc3C2)Cc2ccccc2C1O)c1ccccc1 (stereo not shown) [Compound III, 1-phenyl-2-((2′-iidenyl)-indan-2-ol)ethan-1-one]		37.3	
